Literature values in patent US10183097B2, “Engineered cardiac derived compositions and methods of use” (THE JOHNS HOPKINS UNIVERSITY, priority 2013, dated 2019).

System: NRVM
Conditions: inventors' previous NRVM study with myofibroblasts; agent added separately

Row | Compound | electrophysiological suppression of conduction | severity of arrhythmia
1 | Cc1ccc2c(c1)C(=O)C1(O)CCN(c3ccccc3)C1=N2 (stereo not drawn) [blebbistatin] | relieved the electrophysiological suppression of conduction | reduced the severity of arrhythmia
2 | [Gd] [gadolinium] | relieved the electrophysiological suppression of conduction | reduced the severity of arrhythmia
3 | [H]/N=C(/N)N[C@H]1[C@H](O)[C@@H](O)[C@H](O[C@@H]2O[C@@H](C)[C@](O)(C=O)[C@H]2O[C@@H]2O[C@@H](CO)[C@H](O)[C@@H](O)[C@@H]2NC)[C@@H](N/C(N)=N\[H])[C@@H]1O [streptomycin] | relieved the electrophysiological suppression of conduction | reduced the severity of arrhythmia
